Tested on: P12-Ichikawa
Test: cell viability relative to DMSO control; higher = less cytotoxic
Settings: 48 h
How it was run: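 Viability was expressed as a per-plate percentage of DMSO wells, with cell-free wells as background. Leukemia cells (NOMO1 or SEM at 500 cells/well, P12-Ichikawa at 1000 cells/well) were adapted for at least four passages in each medium and seeded in 1536-well plates (5 μl). Library compounds in DMSO were pin-dosed over an 11-point threefold series from 47 μM to 0.79 nM, and CellTiter-Glo One luminescence was read after 48 h at 37°C.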

[1] = HPLM + 10% dialyzed FBS, 0.000781 µM
[2] = HPLM + 10% dialyzed FBS, 0.00234 µM
[3] = HPLM + 10% dialyzed FBS, 0.00702 µM
[4] = HPLM + 10% dialyzed FBS, 0.0211 µM
[5] = HPLM + 10% dialyzed FBS, 0.0632 µM
[6] = HPLM + 10% dialyzed FBS, 0.19 µM
[7] = HPLM + 10% dialyzed FBS, 0.569 µM
[8] = HPLM + 10% dialyzed FBS, 1.71 µM
[9] = HPLM + 10% dialyzed FBS, 5.12 µM
[10] = HPLM + 10% dialyzed FBS, 15.4 µM
[11] = HPLM + 10% dialyzed FBS, 46.1 µM
[12] = RPMI 5 mM glucose + 10% FBS, 0.000781 µM
[13] = RPMI 5 mM glucose + 10% FBS, 0.00234 µM
[14] = RPMI 5 mM glucose + 10% FBS, 0.00702 µM
[15] = RPMI 5 mM glucose + 10% FBS, 0.0211 µM
[16] = RPMI 5 mM glucose + 10% FBS, 0.0632 µM
[17] = RPMI 5 mM glucose + 10% FBS, 0.19 µM
[18] = RPMI 5 mM glucose + 10% FBS, 0.569 µM
[19] = RPMI 5 mM glucose + 10% FBS, 1.71 µM
[20] = RPMI 5 mM glucose + 10% FBS, 5.12 µM
[21] = RPMI 5 mM glucose + 10% FBS, 15.4 µM
[22] = RPMI 5 mM glucose + 10% FBS, 46.1 µM
[23] = RPMI 5 mM glucose + 10% dialyzed FBS, 0.000781 µM
[24] = RPMI 5 mM glucose + 10% dialyzed FBS, 0.00234 µM
[25] = RPMI 5 mM glucose + 10% dialyzed FBS, 0.00702 µM
[26] = RPMI 5 mM glucose + 10% dialyzed FBS, 0.0211 µM
[27] = RPMI 5 mM glucose + 10% dialyzed FBS, 0.0632 µM
[28] = RPMI 5 mM glucose + 10% dialyzed FBS, 0.19 µM
[29] = RPMI 5 mM glucose + 10% dialyzed FBS, 0.569 µM
[30] = RPMI 5 mM glucose + 10% dialyzed FBS, 1.71 µM
[31] = RPMI 5 mM glucose + 10% dialyzed FBS, 5.12 µM
[32] = RPMI 5 mM glucose + 10% dialyzed FBS, 15.4 µM
[33] = RPMI 5 mM glucose + 10% dialyzed FBS, 46.1 µM

## Nc1nc(NCCNc2ncc(-n3ccnc3)c(-c3ccc(Cl)cc3Cl)n2)ccc1[N+](=O)[O-]
[1]
  cell viability: 114%
[2]
  cell viability: 119%
[3]
  cell viability: 125%
[4]
  cell viability: 123%
[5]
  cell viability: 126%
[6]
  cell viability: 132%
[7]
  cell viability: 133%
[8]
  cell viability: 131%
[9]
  cell viability: 134%
[10]
  cell viability: 130%
[11]
  cell viability: 125%

## CCc1cc(-c2n[nH]c(C)c2-c2ccc3c(c2)OCCO3)c(O)cc1O
[1]
  cell viability: 115%
[2]
  cell viability: 133%
[3]
  cell viability: 119%
[4]
  cell viability: 132%
[5]
  cell viability: 132%
[6]
  cell viability: 135%
[7]
  cell viability: 131%
[8]
  cell viability: 135%
[9]
  cell viability: 131%
[10]
  cell viability: 96.7%
[11]
  cell viability: 74.7%

## N#CC[C@H](C1CCCC1)n1cc(-c2ncnc3[nH]ccc23)cn1
[1]
  cell viability: 95.7%
[2]
  cell viability: 95.2%
[3]
  cell viability: 98.5%
[4]
  cell viability: 98.1%
[5]
  cell viability: 98.6%
[6]
  cell viability: 90.3%
[7]
  cell viability: 89.4%
[8]
  cell viability: 91.8%
[9]
  cell viability: 72.9%
[10]
  cell viability: 52.8%
[11]
  cell viability: 40%
[12]
  cell viability: 93.7%
[13]
  cell viability: 95.7%
[14]
  cell viability: 93.4%
[15]
  cell viability: 92.6%
[16]
  cell viability: 103%
[17]
  cell viability: 89.2%
[18]
  cell viability: 83.1%
[19]
  cell viability: 95.4%
[20]
  cell viability: 75.4%
[21]
  cell viability: 54.5%
[22]
  cell viability: 23.3%
[23]
  cell viability: 90.8%
[24]
  cell viability: 89%
[25]
  cell viability: 86.3%
[26]
  cell viability: 87.4%
[27]
  cell viability: 89.6%
[28]
  cell viability: 88.3%
[29]
  cell viability: 82.2%
[30]
  cell viability: 87.7%
[31]
  cell viability: 70.4%
[32]
  cell viability: 41.1%
[33]
  cell viability: 23.3%

## CCOC(=O)[C@H]1O[C@@H]1C(=O)N[C@@H](CC(C)C)C(=O)NCCC(C)C
[1]
  cell viability: 123%
[2]
  cell viability: 114%
[3]
  cell viability: 121%
[4]
  cell viability: 127%
[5]
  cell viability: 123%
[6]
  cell viability: 123%
[7]
  cell viability: 117%
[8]
  cell viability: 116%
[9]
  cell viability: 117%
[10]
  cell viability: 108%
[11]
  cell viability: 106%
[12]
  cell viability: 128%
[13]
  cell viability: 121%
[14]
  cell viability: 119%
[15]
  cell viability: 118%
[16]
  cell viability: 124%
[17]
  cell viability: 115%
[18]
  cell viability: 127%
[19]
  cell viability: 116%
[20]
  cell viability: 115%
[21]
  cell viability: 106%
[22]
  cell viability: 92.9%
[23]
  cell viability: 116%
[24]
  cell viability: 119%
[25]
  cell viability: 115%
[26]
  cell viability: 121%
[27]
  cell viability: 124%
[28]
  cell viability: 119%
[29]
  cell viability: 122%
[30]
  cell viability: 119%
[31]
  cell viability: 118%
[32]
  cell viability: 109%
[33]
  cell viability: 102%

## C1COC(NC(C2CC2)C2CC2)=N1
[1]
  cell viability: 82.7%
[2]
  cell viability: 92%
[3]
  cell viability: 84.2%
[4]
  cell viability: 94.6%
[5]
  cell viability: 88.9%
[6]
  cell viability: 90.7%
[7]
  cell viability: 95.5%
[8]
  cell viability: 85.4%
[9]
  cell viability: 88.9%
[10]
  cell viability: 100%
[11]
  cell viability: 77.1%
[12]
  cell viability: 89.2%
[13]
  cell viability: 103%
[14]
  cell viability: 106%
[15]
  cell viability: 98.4%
[16]
  cell viability: 103%
[17]
  cell viability: 97.6%
[18]
  cell viability: 93.8%
[19]
  cell viability: 91.3%
[20]
  cell viability: 94.6%
[21]
  cell viability: 95.5%
[22]
  cell viability: 77.7%
[23]
  cell viability: 79.5%
[24]
  cell viability: 80.5%
[25]
  cell viability: 87.1%
[26]
  cell viability: 91.6%
[27]
  cell viability: 87.2%
[28]
  cell viability: 82.4%
[29]
  cell viability: 88.6%
[30]
  cell viability: 83.4%
[31]
  cell viability: 91.6%
[32]
  cell viability: 89.3%
[33]
  cell viability: 58.8%

## CC(C)CC(N(C)C)C1(c2ccc(Cl)cc2)CCC1 (stereo unspecified)
[1]
  cell viability: 114%
[2]
  cell viability: 120%
[3]
  cell viability: 105%
[4]
  cell viability: 113%
[5]
  cell viability: 114%
[6]
  cell viability: 111%
[7]
  cell viability: 105%
[8]
  cell viability: 86.3%
[9]
  cell viability: 57.7%
[10]
  cell viability: 54.9%
[11]
  cell viability: 34%
[12]
  cell viability: 109%
[13]
  cell viability: 115%
[14]
  cell viability: 113%
[15]
  cell viability: 109%
[16]
  cell viability: 106%
[17]
  cell viability: 112%
[18]
  cell viability: 94%
[19]
  cell viability: 82.2%
[20]
  cell viability: 51.4%
[21]
  cell viability: 48.7%
[22]
  cell viability: 49.1%
[23]
  cell viability: 106%
[24]
  cell viability: 114%
[25]
  cell viability: 106%
[26]
  cell viability: 107%
[27]
  cell viability: 111%
[28]
  cell viability: 110%
[29]
  cell viability: 86.7%
[30]
  cell viability: 76.2%
[31]
  cell viability: 49.9%
[32]
  cell viability: 45.3%
[33]
  cell viability: 41.6%

## NCCc1ccc(O)c(O)c1
[23]
  cell viability: 128%
[24]
  cell viability: 124%
[25]
  cell viability: 123%
[26]
  cell viability: 126%
[27]
  cell viability: 131%
[28]
  cell viability: 123%
[29]
  cell viability: 129%
[30]
  cell viability: 121%
[31]
  cell viability: 121%
[32]
  cell viability: 124%
[33]
  cell viability: 110%

## CN(C(Cc1ccc(O[S+](=O)([O-])c2cccc3cnccc23)cc1)C(=O)N1CCN(c2ccccc2)CC1)[S+](=O)([O-])c1cccc2cnccc12 (stereo unspecified)
[1]
  cell viability: 102%
[2]
  cell viability: 103%
[3]
  cell viability: 106%
[4]
  cell viability: 110%
[5]
  cell viability: 114%
[6]
  cell viability: 105%
[7]
  cell viability: 114%
[8]
  cell viability: 102%
[9]
  cell viability: 93.1%
[10]
  cell viability: 89.2%
[11]
  cell viability: 70.5%
[12]
  cell viability: 107%
[13]
  cell viability: 110%
[14]
  cell viability: 109%
[15]
  cell viability: 106%
[16]
  cell viability: 108%
[17]
  cell viability: 103%
[18]
  cell viability: 103%
[19]
  cell viability: 97.7%
[20]
  cell viability: 90.6%
[21]
  cell viability: 71.8%
[22]
  cell viability: 57.3%
[23]
  cell viability: 104%
[24]
  cell viability: 108%
[25]
  cell viability: 105%
[26]
  cell viability: 121%
[27]
  cell viability: 109%
[28]
  cell viability: 105%
[29]
  cell viability: 113%
[30]
  cell viability: 97.8%
[31]
  cell viability: 102%
[32]
  cell viability: 84.8%
[33]
  cell viability: 58.7%

## C[N+]1(C)[C@@H]2CC(OC(=O)C(O)(c3cccs3)c3cccs3)C[C@H]1[C@@H]1O[C@@H]12 (stereo partly specified)
[1]
  cell viability: 98.7%
[2]
  cell viability: 105%
[3]
  cell viability: 109%
[4]
  cell viability: 106%
[5]
  cell viability: 109%
[6]
  cell viability: 110%
[7]
  cell viability: 109%
[8]
  cell viability: 109%
[9]
  cell viability: 103%
[10]
  cell viability: 112%
[11]
  cell viability: 102%
[12]
  cell viability: 117%
[13]
  cell viability: 113%
[14]
  cell viability: 123%
[15]
  cell viability: 111%
[16]
  cell viability: 120%
[17]
  cell viability: 126%
[18]
  cell viability: 120%
[19]
  cell viability: 116%
[20]
  cell viability: 115%
[21]
  cell viability: 111%
[22]
  cell viability: 121%
[23]
  cell viability: 105%
[24]
  cell viability: 101%
[25]
  cell viability: 100%
[26]
  cell viability: 107%
[27]
  cell viability: 105%
[28]
  cell viability: 111%
[29]
  cell viability: 109%
[30]
  cell viability: 109%
[31]
  cell viability: 111%
[32]
  cell viability: 113%
[33]
  cell viability: 101%
